Test results: patent US20200163984A1, “USE OF ISOVALERYL SPIRAMYCIN I, II AND/OR III IN MANUFACTURING MEDICAMENT FOR TREATING AND/OR PREVENTING TUMOR, AND MEDICAMENT” (SHENYANG FUYANG PHARMACEUTICAL TECHNOLOGY CO., LTD., priority 2017, published 2020)

How the values were obtained:
[1] = Spleen index of A549 lung cancer tumor-bearing mice; conditions: n = 6
[2] = tested on: transplanted tumor of human cervical cancer cell HeLa; experiment: HeLa transplanted tumor in nude mice; conditions: for Tumor Volume (mm3) (d 1): d1
Description: (§1) HeLa cells in a logarithmic growth phase were taken and subjected to a trypan blue exclusion experiment showing that the cell viability was more than 95%, then the cells were subjected to trypsinization, centrifugation, and supernatant removal. Then cell concentration was adjusted to 1×10^7/ml with matrigel, then each nude mouse was inoculated subcutaneously with 0.2 ml of cells at its right armpit and recorded as the first day of inoculation. When the tumor grows to be greater than or equal to 100 mm^3, the mice were randomly divided into 11 groups with 6 mice in each group: a model group, a cyclophosphamide group, isovaleryl spiramycin I groups with doses of 25, 50 and 100 mg/kg, isovaleryl spiramycin II groups with doses of 25, 50 and 100 mg/kg, and isovaleryl spiramycin III groups with doses of 25, 50 and 100 mg/kg. Each group was continuously administered intragastrically for 30 days with a dose of 20 ml/kg. The mice were sacrificed the next day after drug withdrawal and the indicators were tested. The long diameter and short diameter of the tumor, and the body weight of each mouse were recorded every 3 days from drug administration to nude mouse sacrifice.
(§2) The body weight of the nude mice and the long diameter (a) and short diameter (b) of the transplanted tumor were measured every 3 days, and the tumor volume (v), relative tumor volume (RTV) and relative tumor proliferation rate (T/C) are calculated respectively according to the following formulas, wherein V=a×b^2/2; RTV=V/V0 (V0 is the tumor volume before administration, V is the tumor volume before sacrifice), and T/C (%)=treatment group RTV/model control group RTV×100%.
(§3) Each mouse was weighed and sacrificed. After the tumor was completely stripped off from the body of the mouse, the non-tumor tissues such as blood stains and fat were removed to weigh the tumor and calculate the tumor growth inhibition rate. The average tumor weight of each group of mice is used as an indicator of efficacy. Tumor growth inhibition rate (%)=(1−the average tumor weight of the treatment group/the average tumor weight of the model group)×100%.

[3] = tested on: transplanted tumor of human renal cell adenocarcinoma cell 769-P; experiment: 769-P transplanted tumor in nude mice; conditions: for Tumor Volume (mm3) (d 1): d1
Description: as §1, with “Then” for “HeLa cells in a logarithmic growth phase were taken and subjected to a trypan blue exclusion experiment showing that the cell viability was more than 95%, then the cells were subjected to trypsinization, centrifugation, and supernatant removal. Then”, “the” for “the body”
as §2, §3

[4] = HeLa, high dose (100 mg/kg in method) i.g. 30 days
[5] = HeLa, low dose (25 mg/kg in method) i.g. 30 days
[6] = HeLa, medium dose (50 mg/kg in method) i.g. 30 days
[7] = 769-P, high dose (100 mg/kg in method) i.g. 30 days
[8] = 769-P, low dose (25 mg/kg in method) i.g. 30 days
[9] = 769-P, medium dose (50 mg/kg in method) i.g. 30 days

Compound: CCC(=O)O[C@@H]1CC(=O)O[C@H](C)C/C=C/C=C/[C@H](O[C@H]2CC[C@H](N(C)C)[C@@H](C)O2)[C@H](C)C[C@H](CC=O)[C@H](O[C@@H]2O[C@H](C)[C@@H](O[C@H]3C[C@@](C)(O)[C@@H](OC(=O)CC(C)C)[C@H](C)O3)[C@H](N(C)C)[C@H]2O)[C@H]1OC [Isovaleryl spiramycin III, isovaleryl spiramycin III]
- Spleen Index (%) ([1]; dose 13 mg/kg): 0.32 ± 0.02%
- Spleen Index (%) ([1]; dose 26 mg/kg): 0.33 ± 0.11%
- Spleen Index (%) ([1]; dose 52 mg/kg): 0.35 ± 0.09%
- Inhibition Rate (%) ([2]; HeLa nude mice, 12.5 mg/kg): 39.33%
- Relative Tumor Proliferation Rate (T/C) ([2]; HeLa nude mice, 12.5 mg/kg): 62.92%
- Relative Tumor Volume (RTV) ([2]; HeLa nude mice, 12.5 mg/kg): 1.43 ± 1.47
- Tumor Weight ([2]; HeLa nude mice, 12.5 mg/kg): 1.17 ± 0.64 g
- Tumor Volume (mm3) (d 1) ([2]; HeLa nude mice, 12.5 mg/kg): 123.36 ± 21.45 mm3
- Tumor Volume (mm3) (d30) ([2]; HeLa nude mice, 12.5 mg/kg): 1281.92 ± 242.71 mm3
- Inhibition Rate (%) ([2]; HeLa nude mice, 25 mg/kg): 52.41%
- Relative Tumor Proliferation Rate (T/C) ([2]; HeLa nude mice, 25 mg/kg): 52.05%
- Relative Tumor Volume (RTV) ([2]; HeLa nude mice, 25 mg/kg): 8.63 ± 3.37
- Tumor Weight ([2]; HeLa nude mice, 25 mg/kg): 0.92 ± 0.49 g
- Tumor Volume (mm3) (d 1) ([2]; HeLa nude mice, 25 mg/kg): 115.2 ± 27.18 mm3
- Tumor Volume (mm3) (d30) ([2]; HeLa nude mice, 25 mg/kg): 1007.46 ± 481.36 mm3
- Inhibition Rate (%) ([2]; HeLa nude mice, 50 mg/kg): 61.68%
- Relative Tumor Proliferation Rate (T/C) ([2]; HeLa nude mice, 50 mg/kg): 39.33%
- Relative Tumor Volume (RTV) ([2]; HeLa nude mice, 50 mg/kg): 6.52 ± 0.73
- Tumor Weight ([2]; HeLa nude mice, 50 mg/kg): 0.75 ± 0.11 g
- Tumor Volume (mm3) (d 1) ([2]; HeLa nude mice, 50 mg/kg): 113.35 ± 20.84 mm3
- Tumor Volume (mm3) (d30) ([2]; HeLa nude mice, 50 mg/kg): 727.16 ± 46.92 mm3
- Relative Tumor Proliferation Rate (T/C) [2, 4]: 61.68%
- tumor growth inhibition rate [2, 4]: 61.68%
- Relative Tumor Proliferation Rate (T/C) [2, 5]: 39.33%
- tumor growth inhibition rate [2, 5]: 39.33%
- tumor volume and relative tumor volume compared with the model group ([2]; HeLa, low, medium and high doses, P<0.05): significantly lower
- Relative Tumor Proliferation Rate (T/C) [2, 6]: 52.41%
- tumor growth inhibition rate [2, 6]: 52.41%
- mouse weight compared with the model group ([2]; mouse, in vivo): no significant changes
- Body Weight (g) (d1) ([2]; mouse, in vivo, 12.5 mg/kg): 21.30 ± 0.64 g
- Body Weight (g) (d30) ([2]; mouse, in vivo, 12.5 mg/kg): 20.67 ± 0.45 g
- Body Weight (g) (d1) ([2]; mouse, in vivo, 25 mg/kg): 20.87 ± 0.78 g
- Body Weight (g) (d30) ([2]; mouse, in vivo, 25 mg/kg): 20.80 ± 0.55 g
- Body Weight (g) (d1) ([2]; mouse, in vivo, 50 mg/kg): 21.09 ± 0.51 g
- Body Weight (g) (d30) ([2]; mouse, in vivo, 50 mg/kg): 21.10 ± 0.52 g
- Inhibition Rate (%) ([3]; 769-P nude mice, 25 mg/kg): 40.87%
- Relative Tumor Proliferation Rate (T/C) ([3]; 769-P nude mice, 25 mg/kg): 61.59%
- Relative Tumor Volume (RTV) ([3]; 769-P nude mice, 25 mg/kg): 11.37 ± 1.469
- Tumor Weight ([3]; 769-P nude mice, 25 mg/kg): 1.22 ± 0.46 g
- Tumor Volume (mm3) (d 1) ([3]; 769-P nude mice, 25 mg/kg): 146.32 ± 43.02 mm3
- Tumor Volume (mm3) (d30) ([3]; 769-P nude mice, 25 mg/kg): 1663.32 ± 445.50 mm3
- Inhibition Rate (%) ([3]; 769-P nude mice, 50 mg/kg): 60.50%
- Relative Tumor Proliferation Rate (T/C) ([3]; 769-P nude mice, 50 mg/kg): 51.59%
- Relative Tumor Volume (RTV) ([3]; 769-P nude mice, 50 mg/kg): 9.52 ± 1.67
- Tumor Weight ([3]; 769-P nude mice, 50 mg/kg): 0.82 ± 0.06 g
- Tumor Volume (mm3) (d 1) ([3]; 769-P nude mice, 50 mg/kg): 180.43 ± 51.70 mm3
- Tumor Volume (mm3) (d30) ([3]; 769-P nude mice, 50 mg/kg): 1717.76 ± 524.33 mm3
- Inhibition Rate (%) ([3]; 769-P nude mice, 100 mg/kg): 64.46%
- Relative Tumor Proliferation Rate (T/C) ([3]; 769-P nude mice, 100 mg/kg): 36.55%
- Relative Tumor Volume (RTV) ([3]; 769-P nude mice, 100 mg/kg): 6.56 ± 0.28
- Tumor Weight ([3]; 769-P nude mice, 100 mg/kg): 0.73 ± 0.08 g
- Tumor Volume (mm3) (d 1) ([3]; 769-P nude mice, 100 mg/kg): 104.38 ± 12.92 mm3
- Tumor Volume (mm3) (d30) ([3]; 769-P nude mice, 100 mg/kg): 684.88 ± 62.28 mm3
- Relative Tumor Proliferation Rate (T/C) [3, 7]: 35.55%
- tumor growth inhibition rate [3, 7]: 64.46%
- Relative Tumor Proliferation Rate (T/C) [3, 8]: 61.59%
- tumor growth inhibition rate [3, 8]: 40.87%
- tumor volume and relative tumor volume compared with the model group ([3]; 769-P, low, medium and high doses, P<0.05): significantly lower
- Relative Tumor Proliferation Rate (T/C) [3, 9]: 51.59%
- tumor growth inhibition rate [3, 9]: 60.50%
- mouse weight compared with the model group ([3]; mouse, in vivo): no significant changes
- Body Weight (g) (d1) ([3]; mouse, in vivo, 25 mg/kg): 23.09 ± 1.90 g
- Body Weight (g) (d30) ([3]; mouse, in vivo, 25 mg/kg): 22.72 ± 0.78 g
- Body Weight (g) (d1) ([3]; mouse, in vivo, 50 mg/kg): 22.90 ± 1.00 g
- Body Weight (g) (d30) ([3]; mouse, in vivo, 50 mg/kg): 21.43 ± 1.08 g
- Body Weight (g) (d1) ([3]; mouse, in vivo, 100 mg/kg): 20.49 ± 1.14 g
- Body Weight (g) (d30) ([3]; mouse, in vivo, 100 mg/kg): 22.28 ± 1.72 g
